Experimental data reported in the NIST ThermoML archive (doi:10.1021/acs.jced.6b00526).

Assay: refractive index (Na D-line) (dimensionless); xn = mol fraction of the nth substance listed
Settings: 100 kPa, Liquid, Standard Abbe refractometry

OCCCCCO [1,5-pentanediol] + O
refractive index
Settings	x2 = 0	x2 = 0.1235	x2 = 0.2586	x2 = 0.3455	x2 = 0.4864	x2 = 0.5755	x2 = 0.6777	x2 = 0.7611	x2 = 0.8474	x2 = 0.9205
288.15 K	1.4503	1.4493	1.4477	1.4463	1.4425	1.4401	1.4342	1.4253	1.4085	1.3851
293.15 K	1.449	1.4477	1.4462	1.4447	1.4411	1.4386	1.4328	1.4239	1.4073	1.384
298.15 K	1.4478	1.4464	1.4447	1.4432	1.4396	1.4371	1.4315	1.4225	1.406	1.3828
303.15 K	1.4466	1.4448	1.4431	1.4416	1.438	1.4355	1.43	1.4211	1.4048	1.3816
308.15 K	1.4454	1.4434	1.4416	1.4402	1.4367	1.4341	1.4286	1.4197	1.4035	1.3804
313.15 K	1.4441	1.4419	1.44	1.4386	1.4352	1.4326	1.4271	1.4183	1.4022	1.3793
318.15 K	1.443	1.4408	1.4386	1.4373	1.434	1.4313	1.4259	1.4171	1.401	1.3781
